Measurements as given in patent US20250032630A1, “B7H4 ANTIBODY-DRUG CONJUGATE AND USE THEREOF” (Duality Biologics (Suzhou) Co., Ltd., priority 2022, published 2025).
Like-named read-outs stand apart in the source and are kept apart here.

Legend:
[1] = system: breast cancer cells JIMT-1 negative for B7H4 expression; test: In vitro proliferation inhibition (3D cell culture, CTG); type: cell-based; conditions: Homo sapiens, 144 h, JIMT-1, 3D culture, 6 days
Protocol: (§1) The cells in the logarithmic growth phase were collected and a cell culture medium was added to resuspend the cells to prepare a single cell suspension. The single cell suspension was adjusted to a live cell density of […], and 3.5 mL of the cell suspension was mixed uniformly with 6.5 mL of 1% methylcellulose, avoiding bubbles as much as possible. 90 μL of the cell suspension was added to each well of 96-well plates, and the plates were cultured overnight in an incubator with 5% CO2 at 37° C. On the second day of the experiment, the test article was diluted with a complete medium to obtain a 10× solution, 10 μL of the test article solution (the highest final concentration of 100 nM, 9 concentrations, 3-fold dilution) was added to each well, the complete medium was used as a blank control, and 3 replicate wells were set up; and the plates were incubated in the incubator at 37° C. for another 6 days. After the incubation was completed, the cell culture plates were taken out and equilibrated to room temperature, and 100 μL of CTG detection reagent (Promega, Cat #: G7573) was added to each well. The plates were shaken and mixed uniformly, then left to stand in the dark for 10 minutes, and then placed at room temperature for 30 minutes to stabilize the luminescence signal. Luminescence was read using EnVision. Using GraphPad Prism software, a sigmoidal dose-response curve was plotted by using a non-linear regression model, and the IC50 value was calculated. Cell viability calculation

[2] = system: human breast cancer cells MX-1 with high expression of B7H4; test: as above; type: cell-based; conditions: 144 h, MX-1, 3D culture, 6 days
Protocol: as §1

[3] = system: endometrial carcinoma cells RL95-2 with low expression of B7H4; test: as above; type: cell-based; conditions: Homo sapiens, 144 h, RL95-2, 3D culture, 6 days
Protocol: as §1

NCI-N87 cells = test: In vitro proliferation inhibition test of small molecule compound (CTG, 6 days), Example 3.2; type: cell-based; conditions: Homo sapiens, read-out: Abs-IC50
Protocol: (§2) To detect the inhibitory activity of the drug compound against the proliferation of NCI-N87 and Colo205 tumor cells in vitro. Cells were treated with different concentrations of the compound in vitro, after 6 days of culture, the proliferation of the cells was detected using CTG (CellTiter-Glo® Luminescent Cell Viability Assay, Promega, Cat. No.: G7558) reagent, and the in vitro activity of the compound was evaluated according to the IC50 values. • 1. Cell culture: NCI-N87/Colo205 cells were cultured with 10% FBS RPMI-1640 medium. • 2. Preparation of cells: the NCI-N87/Colo205 cells in the logarithmic growth phase were taken and washed once with PBS, and 2-3 ml of trypsin was then added for digestion for 2-3 min. After the cells were completely digested, 10-15 ml of cell culture medium was added to elute the digested cells, the cells were centrifuged at 1000 rpm for 5 min, the supernatant was discarded, and then 10-20 ml of cell culture medium was added to resuspend the cells to prepare a single cell suspension. • 3. Cell plating: the NCI-N87/Colo205 single cell suspensions were mixed uniformly, and respectively adjusted to a live cell density of 6×10^4 cells/ml with a cell culture medium, and the density-adjusted cell suspensions were mixed uniformly, and added to 96-well cell culture plates at 50 ul/well. The culture plates were cultured in an incubator for 18 hours (37° C., 5% CO2). • 4. Preparation of compound: the compound was dissolved in DMSO to formulate a stock solution with an initial concentration of 10 mM.
(§3) A total of 8 concentrations of the small molecule compound were involved: 300, 100, 30, 10, 3, 1, 0.3, and 0.1 nM, respectively. • 5. Sample loading operation: different concentrations of the formulated samples to be tested were added to culture plates, with two replicate wells for each sample. The culture plates were incubated in an incubator for 6 days (37° C., 5% CO2). • 6. Color development operation: the 96-well cell culture plates were taken out, 50 ul of CTG reagent was added to each well, and the plates were incubated for 10 minutes at room temperature. • 7. Plate reading operation: the 96-well cell culture plates were taken out, and placed in a microplate reader, and the chemiluminescence was determined using the microplate reader.
(§4) Data analysis: the data was processed and analyzed using Microsoft Excel and Graphpad Prism 5.

Colo205 cells = test: as above; type: cell-based; conditions: Homo sapiens, COLO 205, 144 h, read-out: Abs-IC50
Protocol: as §2, §3, §4

human B7H4 = molecular target: T1, human B7H4 (human, UniProt Q7Z7D3 25-282); test: cell-based or functional assay
T1 sequence (looked up): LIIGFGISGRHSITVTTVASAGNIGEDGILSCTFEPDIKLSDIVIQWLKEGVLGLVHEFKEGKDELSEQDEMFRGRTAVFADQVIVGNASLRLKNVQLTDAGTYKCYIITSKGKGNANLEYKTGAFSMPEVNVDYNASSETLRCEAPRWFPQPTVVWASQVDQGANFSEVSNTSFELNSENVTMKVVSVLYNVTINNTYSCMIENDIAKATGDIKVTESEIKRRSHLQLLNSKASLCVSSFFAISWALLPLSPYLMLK

[4] = highest concentration 100 nM, read-out: Max inh.

CC[C@@]1(O)C(=O)OCc2c1cc1n(c2=O)Cc2c-1nc1cc(F)c(C)c3c1c2[C@@H](NC(=O)C[C@H](C)O)CC3 [P-III-30]
IC50 [1]: 24.3 nM
inhibition at up to 0.1 µM [1, 4]: 71%
IC50 [2]: 1.77 nM
inhibition at up to 0.1 µM [2, 4]: 84.5%
IC50 [3]: 0.843 nM
inhibition at up to 0.1 µM [3, 4]: 95.1%
IC50 (NCI-N87 cells; 144 h, NCI-N87, 6 days, CTG): 6.5 nM
IC50 (Colo205 cells; Colo205, 6 days, CTG): 103 nM

CC[C@@]1(O)C(=O)OCc2c1cc1n(c2=O)Cc2c-1nc1cc(F)c(C)c3c1c2[C@@H](NC(=O)CCN)CC3 [Reference example 1, reference compound]
IC50 (NCI-N87 cells; NCI-N87, 144 h): > 300 nM
IC50 (Colo205 cells): > 1000 nM

B1: antibody-drug conjugate DB1001-X1 (antibody, DAR 3.89, V domains shown)
VH: QVQLVESGGGVVQPGRSLRLSCAASGFTFRSFGMHWVRQAPGKGLEWVAVISYDASNEYYADSVKGRFIISRDNSKDTLYLQMNSLRAGDTAVYYCAKGGALRWYFAYWGQGTLVTVSS
VL: EIVMTQSPATLSVSPGERATLSCRASQSISSNLGWYQQKPGQAPRLLIYGASTRATGIPARFSGSGSGTEFTLTISSLQSEDFAVYYCQQYRSWPPLTFGGGTKVEIKR
modifications: linker-cytotoxin X1 (payload P-II-3) coupled after TCEP reduction of the antibody; drug-to-antibody ratio (DAR) of 3.89; conjugation residues not stated
IC50 (nM), in vitro proliferation inhibition of MDA-MB-468 cells (CTG, 7 days) (human B7H4): 30.3 nM
